Source: patent publication US20240209456A1, “METHODS AND COMPOSITIONS RELATED TO CELL-CYCLE RNA's” (BETH ISRAEL DEACONESS MEDICAL CENTER, priority 2021, published 2024)
*1 amine or outer side, *2 acyl side, *3 side chain or, on linkers, in order; H or OH if unused. Where a SMILES comes first, the peptide text is derived from it. Bridges are numbered along the chain shown (N, C = ends). Roman numbers before positions name the chains, in order. [ ]: non-standard residue; d: D form. Actinocin(9to1) = Cc1c2oc3c(C)ccc(C(=O)[*:1])c3nc-2c(C(=O)[*:2])c(N)c1=O; NMeV = CN[C@H](C(=O)O)C(C)C; Sar = CNCC(=O)O

Columns and labels:
acH2A.Z = experiment: ChIP-Seq with acH2A.Z antibody, occupancy at TSSs; type: cell-based, human; conditions: for number of TSS with at least / greater than 2-fold drop in acH2A.Z occupancy: HL-60, 2 hr treatment, vs cells without treatment, 38,512 TSS compared; for acH2A.Z enrichment at the TSS, genome-wide / acH2A.Z peak intensity ratio, MYB locus (DMSO = 0.62, ActD = 1.0) / acH2A.Z peak intensity ratio, PU.1 locus (DMSO = 1.0) / acH2A.Z peak intensity ratio, c-MYC locus (DMSO = 1): HL-60, 2 hr; for acH2A.Z enrichment at the TSS, genome-wide: vs mock-treated (DMSO), FIG. 4C; for acH2A.Z peak intensity ratio, MYB locus (DMSO = 0.62, ActD = 1.0) / acH2A.Z peak intensity ratio, PU.1 locus (DMSO = 1.0) / acH2A.Z peak intensity ratio, c-MYC locus (DMSO = 1): [DMSO/DRB/ActD]
Text: (§1) Two transcription inhibitors, Actinomycin D (ActD; RNA Polymerase I, II and III inhibitor) and 5,6-Dichlorobenzimidazole 1-β-D-ribofuranoside (DRB; RNAPII Inhibitor), were used at concentrations sufficient to block both RNA Polymerases II and III. Cells were synchronized with a double thymidine block and released into S Phase with ActD/DRB added. The rationale behind the use of ActD and DRB is: (i) to globally assess the effect of SPEARs suppression over a short time frame; (ii) to test effects resulting from the two different pathways triggered by ActD and DRB; and (iii) to take advantage of the reversibility of DRB treatment. […] Two hours after drug treatment, cells were crosslinked and subjected to ChIP-Seq analyses. […] Relative changes were then investigated in the footprints of unmodified H2A.Z and acH2A.Z in the vicinity of TSSs that result from DRB- and ActD-induced inhibition of SPEARs. The enrichments of ChIP-Seq signals for H2A.Z and acH2A.Z around 38,512 TSS (defined in the hg38 UCSC canonical gene table) following drug treatment were then compared with their occupancy in mock-treated (DMSO) cells. […] ActD-treated cells followed this pattern with a greater than 2-fold decrease in the levels of acH2A.Z at 6,283 TSS compared to untreated samples. […] For the c-MYC and PU1 loci, respectively, the ratios of control (DMSO) to drug treated H2A.Z peak intensities were: [DMSO/DRB/ActD]^c-MYC=1/0.76/0.67 and [DMSO/DRB/ActD]^PU.1=1/0.87/0.82; and the ratios of control (DMSO) to drug treated acH2A.Z peak intensities were: [DMSO/DRB/ActD]^c-MYC=1/0.62/0.36 and [DMSO/DRB/ActD]^PU.1=1.0/0.25/0.13. […] For MYB the ratios of control (DMSO) to drug treated acH2A.Z peak intensities are: [DMSO/DRB/ActD]^MYB=0.62/0.89/1.0, which corresponds to the increases in its SPEARs levels (FIG. 10C).
(§2) Double Thymidine block (early S-phase block) was carried out as described. Briefly, HL-60 cells were grown overnight to 70-80% confluence, washed twice with 1×PBS and cultured in DMEM (10% FCS)+2.5 mM Thymidine for 18 h (first block). Thymidine was washed out with 1×PBS and cells were grown in DMEM (10% FCS). After 8 hrs cells were cultured in the presence of thymidine for 18 h (second block) and then released as described. Synchrony was monitored by flow cytometry analysis of propidium iodide-stained cells using a LSRII flow cytometer (BD Biosciences) at the Harvard Stem Cell Institute/Beth Israel Deaconess Center flow cytometry facility.
(§3) DRB and Actinomycin D treatments were carried out as described. Briefly, after release from double thymidine block, HL-60 cells were treated with 100 μM of 5,6-Dichlorobenzimidazole 1-β-D-ribofuranoside (DRB) (Sigma Aldrich) or 0.8 μM of Actinomycin D (Sigma Aldrich) as indicated at each time point.
(§4) ChIP was performed as follows. Cells were crosslinked with 1% formaldehyde for 10 min at r.t. Pellets of 1×10^6 cells were used for immunoprecipitation and lysed for 10 minutes on ice and chromatin fragmented using a Branson 250 digital sonicator. Each ChIP was performed with 4 ug of antibody, incubated overnight at 4° C. A 50/50 slurry of protein A and protein G Dynabeads was used to capture enriched chromatin, which was then washed before reverse-crosslinking and proteinase K digestion at 65° C. AMPure XP beads were used to clean up and isolate ChIP DNA for subsequent library construction. The following antibodies were used for ChIP: H2A.Z (Abcam ab4174, lot GR3176820-1), acH2A.Z (Abcam ab18262, lot GR306397-1), TIP60 antibody; and IgG (Abcam ab171870). Fold enrichment was calculated using the formula 2^(−ΔΔCt(ChIP/non-immune serum)). Primer sets used for ChIP are listed in Table 2. nRIP was performed and crosslinked nuclei were collected as follows: 1. 60×10^6 HL-60 cells were crosslinked with 1% formaldehyde (formaldehyde solution, freshly made: 50 mM HEPES-KOH; 100 mM NaCl; 1 mM EDTA; 0.5 mM EGTA; 11% formaldehyde) for 10 min at room temperature. […]

H2A.Z = experiment: ChIP-Seq with H2A.Z antibody, occupancy at TSSs; type: cell-based, human; conditions: for number of TSS with comparable (2-fold) decrease in total H2A.Z occupancy: HL-60, 2 hr treatment, vs cells without treatment, 38,512 TSS compared; for occupancy levels of unmodified H2A.Z at the TSS, genome-wide / H2A.Z peak intensity ratio, PU.1 locus (DMSO = 1) / H2A.Z peak intensity ratio, c-MYC locus (DMSO = 1): HL-60, 2 hr; for occupancy levels of unmodified H2A.Z at the TSS, genome-wide: vs mock-treated (DMSO), FIG. 4C; for H2A.Z peak intensity ratio, PU.1 locus (DMSO = 1) / H2A.Z peak intensity ratio, c-MYC locus (DMSO = 1): [DMSO/DRB/ActD]
Text: as §1, §2, §3, §4

| Compound | number of TSS with at least / greater than 2-fold drop in acH2A.Z occupancy (acH2A.Z) | acH2A.Z enrichment at the TSS, genome-wide (acH2A.Z) | acH2A.Z peak intensity ratio, MYB locus (DMSO = 0.62, ActD = 1.0) (acH2A.Z) | acH2A.Z peak intensity ratio, PU.1 locus (DMSO = 1.0) (acH2A.Z) | acH2A.Z peak intensity ratio, c-MYC locus (DMSO = 1) (acH2A.Z) | number of TSS with comparable (2-fold) decrease in total H2A.Z occupancy (H2A.Z) | occupancy levels of unmodified H2A.Z at the TSS, genome-wide (H2A.Z) | H2A.Z peak intensity ratio, PU.1 locus (DMSO = 1) (H2A.Z) | H2A.Z peak intensity ratio, c-MYC locus (DMSO = 1) (H2A.Z) |
| --- | --- | --- | --- | --- | --- | --- | --- | --- | --- |
| Cc1c2oc3c(C)ccc(C(=O)N[C@@H]4C(=O)N[C@H](C(C)C)C(=O)N5CCC[C@H]5C(=O)N(C)CC(=O)N(C)[C@@H](C(C)C)C(=O)O[C@@H]4C)c3nc-2c(C(=O)N[C@@H]2C(=O)N[C@H](C(C)C)C(=O)N3CCC[C@H]3C(=O)N(C)CC(=O)N(C)[C@@H](C(C)C)C(=O)O[C@@H]2C)c(N)c1=O [ActD, Actinomycin D] (I: T[dV]P[Sar][NMeV] / II: T[dV]P[Sar][NMeV]; ester I:1-I:C, II:1-II:C; linker I:N-II:N via Actinocin(9to1)) | 6,283 TSS | drastic reduction | 1.0 | 0.13 | 0.36 | 650 TSS | only modest changes | 0.82 | 0.67 |
| OC[C@H]1O[C@@H](n2cnc3cc(Cl)c(Cl)cc32)[C@H](O)[C@@H]1O [DRB, 5,6-Dichlorobenzimidazole 1-β-D-ribofuranoside] | 3,394 TSS | drastic reduction | 0.89 | 0.25 | 0.62 | 398 TSS | only modest changes | 0.87 | 0.76 |
